From patent US12070502B2, “Process for reducing subvisible particles in a pharmaceutical formulation” (Regeneron Pharmaceuticals, Inc., priority 2014, dated 2024)

Key:
[1] = system: polysorbate degrading activity; assay: Reduction of polysorbate 20 degradation by lipase inhibitors; format: biochemical, CHO cell; conditions: relative to control without inhibitor
Source text: Polysorbate degradation activity was followed during HIC purification of an exemplar antibody produced in CHO cell culture. Partially purified CHO cell extract was applied to HIC (phenyl-sepharose). The flow-through, which contained almost all of the antibody, was collected and analyzed for polysorbate degradation activity. […] The HIC bound fraction was stripped from the HIC media and subsequently subjected to 100 kDa cut-off ultrafiltration/diafiltration. The unfiltered stripped fraction contained 9.9% polysorbate degradation activity, the filter permeate contained 1.3% polysorbate degradation activity and 5% antibody yield, and the filter retentate contained 7.4% polysorbate degradation activity and 95% antibody yield.
Whether the polysorbate degrading activity is a lipase was tested by combining a lipase inhibitor with the polysorbate degrading activity fraction spiked with polysorbate 20. Table 12 presents the data showing a reduction of polysorbate degrading activity due to lipase inhibitor relative to the control (antibody with associated polysorbate degrading activity plus polysorbate 20 without lipase inhibitor).

[2] = Stability of polysorbate 20 / polysorbate 80 esters in 150 mg/mL antibody (mAb1) formulation by mass spectroscopy; conditions: for Percent Ester Degradation: 150 mg/mL antibody (mAb1) formulation; for percent remaining esters, Diester / percent remaining esters, Monoester: 150 mg/mL mAb1, 0.02% detergent, no HIC (process 3)
Experimental: The stability of polysorbate 20 and polysorbate 80 in the 150 mg/mL antibody (mAb1) formulation containing 0.02% non-ionic detergent (polysorbate) prepared without HIC [process 3, see below and Table 8]) were compared, under the hypothesis that degradation of the fatty acid ester promotes protein instability and consequent SVP formation. The relative amounts of remaining esters (mono- and di-esters) were determined by mass spectroscopy.
The rates of degradation of polysorbate 20 and polysorbate 80 formulated with 150 mg/mL antibody (mAb1) (as described above for Table 5) were determined under identical conditions using mass spectroscopy to measure relative amounts of free fatty acids and fatty acid esters. Percent ester degradation was determined using the following formula:
[formula] wherein T0=time zero, T1=time at experimental condition (i.e., 2 months at 45° C.; 6 months at 5° C.), and POE=polyoxyethylene. […]
The time point samples were analyzed using an anion exchange column (Oasis MAX column, 30 μm, 2.1 mm×20 mm; Waters Corporation, Milford, Mass.) followed at t=5 minutes with reverse phase chromatography (ACQUITY UPLC® BEH 130 C4 column, 1.7 μm, 2.1 mm×50 mm; Waters Corporation, Milford, Mass.). The reverse phase output was connected to a mass spectrometer (Thermo Q-Exactive mass spectrometer; Thermo Fisher Scientific, Inc., Wilmington, Del.). The chromatographic conditions are described in Table 11.
The system was equilibrated with 99% mobile phase A (0.1% formic acid in water) at a flow rate of 0.1 mL/minute for 40 minutes prior to first injection. Water was used as a blank injection. The mass spectrometer parameters were as follows: mass range 150-2000 m/z; heater temperature at 250° C.; voltage 3.8 kv; sheath gas 40; auxiliary gas 10; capillary temperature 350° C.; and S-lens 50.

Molecule	Percent Reduction in Polysorbate 20 Degradation ([1]; 0.001 mM lipase inhibitor)	Percent Reduction in Polysorbate 20 Degradation ([1]; 0.01 mM lipase inhibitor)	Percent Reduction in Polysorbate 20 Degradation ([1]; 0.1 mM lipase inhibitor)	Percent Ester Degradation ([2]; 2 months at 45° C.)	percent remaining esters, Diester ([2]; 2 months at 45° C.)	percent remaining esters, Monoester ([2]; 2 months at 45° C.)	Percent Ester Degradation ([2]; 6 months at 5° C.)	percent remaining esters, Diester ([2]; 6 months at 5° C.)	percent remaining esters, Monoester ([2]; 6 months at 5° C.)	Percent Ester Degradation ([2]; Time zero)	percent remaining esters, Diester ([2]; Time zero)	percent remaining esters, Monoester ([2]; Time zero)
CCCCOc1ccccc1B(O)O [2-Butoxyphenyl boronic acid, 2-butoxyphenylboronic acid]	0%	28%	0%	–	–	–	–	–	–	–	–	–
CCCCCCCCCCC[C@@H](C[C@@H]1OC(=O)[C@H]1CCCCCC)OC(=O)[C@H](CC(C)C)NC=O [Orlistat, orlistat]	0%	27.8%	67%	–	–	–	–	–	–	–	–	–
O=C(Nc1cccc(-c2ccccc2)c1)OC1CCCCC1 [URB602, [1-1′-biphenyl]-3-tl-carbamicacid cyclohexyl ester]	0%	20%	0%	–	–	–	–	–	–	–	–	–
diethylumbelliferyl phosphate	48%	100%	>95%	–	–	–	–	–	–	–	–	–
polysorbate 20 [PS20]	–	–	–	63%	10%	30%	22%	30%	60%	0%	100%	100%
